For nine molecules, MIC results are on record in DBAASP.

In brackets after ≈: the same amount, converted by molar mass.

Some test systems named below: Pseudomonas aeruginosa; Proteus mirabilis; Escherichia coli; Micrococcus luteus; Shigella dysenteriae; Salmonella typhimurium; Bacillus subtilis; Klebsiella pneumoniae; Staphylococcus aureus; Streptococcus uberis; Pasteurella multocida; Leuconostoc lactis; Listeria innocua; Enterococcus faecalis; Bacillus cereus; Escherichia coli MG1655; Candida albicans.
Holding throughout (experiment): ≥ marks a high value that may be exact or a test limit, other limits are often not marked, values filed in µg/mL are converted to µM
The subject of assay [1] is Staphylococcus epidermidis.
Assay [2] deals with Staphylococcus aureus ATCC 2592.
The test system of assay [3] is Candida albicans ATCC 2002.
Assay [4] relates to Bacillus subtilis ATCC 6633.
For assay [5], the system named is Staphylococcus epidermidis ATCC 12228.
The test system of assay [6] is Candida parapsilosis ATCC 22019.
The test system of assay [7] is Escherichia coli ATCC 25922.
Assay [8] deals with Staphylococcus aureus ATCC 25923.
The test system of assay [9] is Pseudomonas aeruginosa PAO1.

On to `CC[C@H](C)[C@@H]1NC(=O)[C@H](C)NC(=O)[C@@H](NC(=O)[C@H](CCCCN)NC(=O)[C@@H](NC(=O)[C@H](CO)NC(=O)[C@@H]2CCCN2C(=O)[C@H](CC(C)C)NC(=O)[C@@H](NC(=O)[C@H](CCCCN)NC(=O)[C@H](CO)NC(=O)[C@H](C)NC(=O)[C@@H](NC(=O)[C@H](CCCCN)NC(=O)[C@H](Cc2ccccc2)NC(=O)[C@H](CC(C)C)NC(=O)[C@H](C)NC(=O)CNC(=O)[C@H](CC(C)C)NC(=O)[C@@H](N)Cc2ccccc2)C(C)C)C(C)C)C(C)C)CSSC[C@@H](C(=O)O)NC(=O)[C@H](CCCCN)NC(=O)[C@H](CCCCN)NC(=O)[C@H]([C@@H](C)O)NC1=O` [FLGALFKVASKVLPSVKCAITKKC], for which the MIC with Pseudomonas aeruginosa is 78.4 µM (≈ 200 µg/mL); in the assay on Proteus mirabilis it was at least 78.4 µM; against Escherichia coli, 4.9 µM (≈ 12.5 µg/mL); against Micrococcus luteus, 2.47 µM (≈ 6.3 µg/mL); against Shigella dysenteriae, 19.6 µM (≈ 50 µg/mL); in assay [1] it was 4.9 µM (≈ 12.5 µg/mL). For the same molecule, the MIC against Salmonella typhimurium was at least 39.2 µM; in the assay on Bacillus subtilis, 2.47 µM (≈ 6.3 µg/mL); against Klebsiella pneumoniae it was 9.8 µM (≈ 25 µg/mL); against Staphylococcus aureus, 1.21 µM (≈ 3.1 µg/mL).

Regarding `CC[C@H](C)[C@H](NC(=O)[C@H](CCCCN)NC(=O)[C@@H]1CCCN1C(=O)[C@H](CC(C)C)NC(=O)[C@H](Cc1ccccc1)NC(=O)[C@H](CC(C)C)NC(=O)[C@@H]1CCCN1C(=O)[C@H](CC(C)C)NC(=O)[C@@H](N)Cc1ccccc1)C(=O)N[C@H](C(=O)N[C@H]1CSSC[C@@H](C(=O)O)NC(=O)[C@H](CCCCN)NC(=O)[C@H](CCCCN)NC(=O)[C@H]([C@@H](C)O)NC(=O)[C@H]([C@@H](C)CC)NC(=O)[C@H](C(C)C)NC1=O)[C@@H](C)CC` [FLPLFLPKIICVITKKC], the MIC against Shigella dysenteriae came out at 17.7 µM (≈ 35 µg/mL); in assay [2], 2.38 µM (≈ 4.7 µg/mL); in [3], 9.49 µM (≈ 18.7 µg/mL); in [4], 4.75 µM (≈ 9.37 µg/mL).

For `CC(C)C[C@H](NC(=O)[C@@H](NC(=O)[C@H](CCCCN)NC(=O)[C@H](CO)NC(=O)[C@H](C)NC(=O)[C@@H](NC(=O)[C@H](CCCCN)NC(=O)[C@H](Cc1ccccc1)NC(=O)[C@H](CC(C)C)NC(=O)[C@H](C)NC(=O)CN)C(C)C)C(C)C)C(=O)O` [GALFKVASKVL], the MIC in the assay on Pseudomonas aeruginosa is above 177 µM; against Proteus mirabilis, at least 177 µM; in the assay on Escherichia coli, 177 µM (≈ 200 µg/mL); in the assay on Micrococcus luteus, at least 177 µM; in the assay with Shigella dysenteriae, at least 177 µM; in assay [1] it was at least 177 µM. Further, the minimum inhibitory concentration (MIC) was at least 177 µM in the assay on Salmonella typhimurium, at least 177 µM in the assay on Bacillus subtilis, above 177 µM with Klebsiella pneumoniae and 177 µM (≈ 200 µg/mL) in the assay on Staphylococcus aureus.

For `CC[C@H](C)[C@H](NC(=O)[C@@H](NC(=O)CNC(=O)[C@H](C)NC(=O)[C@@H](NC(=O)[C@H](CCCCN)NC(=O)[C@H](CCCCN)NC(=O)[C@H](CC(C)C)NC(=O)[C@H](Cc1ccccc1)NC(=O)[C@H](CC(=O)O)NC(=O)[C@@H](NC(=O)[C@H](Cc1ccccc1)NC(=O)CN)C(C)C)C(C)C)[C@@H](C)O)C(=O)N[C@@H](C)C(=O)N[C@@H](CC(N)=O)C(=O)N[C@H](C(=O)N[C@H](C(=O)N[C@H](C(N)=O)[C@@H](C)O)C(C)C)C(C)C` [GFVDFLKKVAGTIANVVT], the MIC is above 53.2 µM against Escherichia coli; 13.3 µM (≈ 25 µg/mL) in the assay with Streptococcus uberis; at least 53.2 µM in the assay with Micrococcus luteus; at least 53.2 µM in the assay with Pasteurella multocida; at least 53.2 µM with Leuconostoc lactis; 26.6 µM (≈ 50 µg/mL) in assay [1]. For the same molecule, the MIC was at least 53.2 µM in the assay on Listeria innocua, at least 53.2 µM in the assay on Enterococcus faecalis, 53.2 µM (≈ 99.9 µg/mL) against Staphylococcus aureus and at least 53.2 µM in the assay with Bacillus cereus.

Turning to `CC[C@H](C)[C@H](NC(=O)CNC(=O)[C@H](CO)NC(=O)[C@@H](NC(=O)[C@@H](NC(=O)CNC(=O)[C@H](CCCCN)NC(=O)[C@H](C)NC(=O)[C@H](CC(C)C)NC(=O)[C@H](CO)NC(=O)[C@H](CCC(=O)O)NC(=O)[C@H](CC(C)C)NC(=O)[C@H](CO)NC(=O)[C@H](CCC(=O)O)NC(=O)[C@H](CC(C)C)NC(=O)[C@H](CCCCN)NC(=O)[C@H](CCC(=O)O)NC(=O)[C@H](CCCCN)NC(=O)[C@@H](NC(=O)[C@@H](NC(=O)[C@H](CCC(N)=O)NC(=O)[C@H](CC(C)C)NC(=O)[C@H](CC(C)C)NC(=O)CN)[C@@H](C)O)[C@@H](C)CC)[C@@H](C)CC)C(C)C)C(=O)N[C@@H](CCC(N)=O)C(=O)N[C@@H](C)C(N)=O` [GLLQTIKEKLESLESLAKGIVSGIQA], the MIC with Escherichia coli was above 36.7 µM; against Streptococcus uberis, 9.17 µM (≈ 25 µg/mL); with Micrococcus luteus, at least 36.7 µM; in the assay on Pasteurella multocida, at least 36.7 µM; in the assay with Leuconostoc lactis it was at least 36.7 µM; in assay [1], at least 36.7 µM. For the same molecule, the MIC against Listeria innocua was at least 36.7 µM; with Enterococcus faecalis, at least 36.7 µM; with Staphylococcus aureus, above 36.7 µM; with Bacillus cereus, at least 36.7 µM.

For the molecule `CC[C@H](C)[C@H](NC(=O)[C@@H](NC(=O)[C@@H]1CCCN1C(=O)[C@@H](NC(=O)[C@@H](NC(=O)[C@H](Cc1cnc[nH]1)NC(=O)[C@@H]1CCCN1C(=O)[C@H](CC(C)C)NC(=O)[C@@H](NC(=O)[C@H](Cc1cnc[nH]1)NC(=O)[C@H](CCCCN)NC(=O)[C@H](C)NC(=O)[C@@H](NC(=O)[C@H](CO)NC(=O)[C@H](CO)NC(=O)[C@H](CC(C)C)NC(=O)[C@H](CO)NC(=O)[C@H](CO)NC(=O)[C@H](CC(C)C)NC(=O)[C@H](CC(C)C)NC(=O)CN)C(C)C)C(C)C)C(C)C)C(C)C)C(C)C)C(=O)N[C@@H](C)C(=O)N[C@@H](CCC(=O)O)C(=O)N[C@@H](Cc1cnc[nH]1)C(=O)N[C@@H](CC(C)C)C(N)=O` [GLLSSLSSVAKHVLPHVVPVIAEHL], the MIC against Escherichia coli was 19.2 µM (≈ 50 µg/mL); against Streptococcus uberis it was at least 38.4 µM; with Micrococcus luteus it was 0.154 µM (≈ 0.4 µg/mL); with Pasteurella multocida it was 9.6 µM (≈ 25 µg/mL); in the assay with Leuconostoc lactis, 4.61 µM (≈ 12 µg/mL); in [1], 9.6 µM (≈ 25 µg/mL). For the same molecule, the MIC in the assay on Listeria innocua is at least 38.4 µM; against Staphylococcus aureus it was 38.4 µM (≈ 100 µg/mL); in the assay with Bacillus cereus, 19.2 µM (≈ 50 µg/mL).

`CC[C@H](C)[C@H](N)C(=O)N[C@H](C(=O)N1CCC[C@H]1C(=O)N[C@@H](Cc1ccccc1)C(=O)N[C@@H](CC(C)C)C(=O)N[C@@H](CC(C)C)C(=O)NCC(=O)N[C@@H](CCSC)C(=O)N[C@H](C(=O)N1CCC[C@H]1C(=O)N[C@@H](CCCCN)C(=O)N[C@@H](CC(C)C)C(=O)N[C@H](C(=O)N[C@H]1CSSC[C@@H](C(=O)O)NC(=O)[C@H](CCCCN)NC(=O)[C@H](CCCCN)NC(=O)[C@H]([C@@H](C)O)NC(=O)[C@H]([C@@H](C)CC)NC(=O)[C@H](CC(C)C)NC1=O)C(C)C)C(C)C)C(C)C` [IVPFLLGMVPKLVCLITKKC]: the minimum inhibitory concentration (MIC) in assay [5] is 4 µM (≈ 8.86 µg/mL); in assay [6], 16 µM (≈ 35.4 µg/mL); in assay [7], 64 µM (≈ 142 µg/mL).

Take `CC[C@H](C)[C@H](NC(=O)[C@@H](NC(=O)[C@H](C)NC(=O)[C@H](C)NC(=O)[C@@H](NC(=O)[C@H](CCCCN)NC(=O)[C@H](CCCCN)NC(=O)[C@@H](NC(=O)[C@@H](NC(=O)[C@H](C)NC(=O)[C@H](Cc1ccccc1)NC(=O)[C@H](CC(C)C)NC(=O)[C@@H](N)CCCCN)C(C)C)[C@@H](C)CC)C(C)C)C(C)C)C(=O)N[C@@H](CCCN=C(N)N)C(=O)N[C@@H](CCCN=C(N)N)C(=O)N[C@@H](CC(C)C)C(N)=O` [KLFAVIKKVAAVIRRL]: the MIC against Escherichia coli is above 54.8 µM; against Streptococcus uberis, at least 54.8 µM; in the assay with Micrococcus luteus, at least 54.8 µM; in the assay with Pasteurella multocida it was at least 54.8 µM; with Leuconostoc lactis it was 6.57 µM (≈ 12 µg/mL); in [1], at least 54.8 µM. For the same molecule, the MIC was 27.4 µM (≈ 50 µg/mL) in the assay with Listeria innocua, above 54.8 µM against Staphylococcus aureus and at least 54.8 µM with Bacillus cereus.

Turning to `CSCC[C@H](NC(=O)[C@@H](NC(=O)[C@@H](N)CCCCN)C(C)C)C(=O)N[C@@H](CCCN=C(N)N)C(=O)N[C@@H](CCCCN)C(=O)N[C@H](C(=O)N[C@@H](CC(C)C)C(=O)NCC(=O)N[C@@H](Cc1ccc(O)cc1)C(=O)N[C@@H](CC(C)C)C(=O)N[C@@H](CCCN=C(N)N)C(=O)N[C@@H](CC(N)=O)C(=O)N[C@H](C(=O)N[C@@H](Cc1ccc(O)cc1)C(=O)N[C@@H](CCCCN)C(N)=O)C(C)C)C(C)C` [KVMRKVLGYLRNVYK], the minimum inhibitory concentration (MIC) in the assay with Escherichia coli MG1655 stood at 2 µM (≈ 3.73 µg/mL); against Candida albicans, 32 µM (≈ 59.7 µg/mL); in assay [8], 128 µM (≈ 239 µg/mL); in [9], 32 µM (≈ 59.7 µg/mL).
